In patent US20060148014A1, “Tubulin isotype screening in cancer therapy using hemiasterlin analogs” (priority 2004, published 2006):
Where two headings read alike, the source gives them in different places.

Columns and labels:
[1] = tested on: AU565 human breast cancer cell line; assay: Cell growth inhibition assay (methylene blue), AU565; type: cell-based
Source text: (§1) The following human breast cancer cell lines were obtained from the ATCC. Cells were maintained according to ATCC-recommended culture conditions. AU565 (ATCC Catalog No. ATCC Catalog. No. CRL-2351), BT-20 (ATCC Catalog No. HTB-19), MCF7 (ATCC Catalog No. HTB22), MDA-MB-231 (ATCC Catalog No. HTB-26), MDA-MB-435 (ATCC Catalog No. HTB-129), MDA-MB-468 (ATCC Catalog No. HTB-132), HCC38 (ATCC Catalog No. CRL-2314), HCC70 (ATCC Catalog No. CRL-2315), HCC1143 (ATCC Catalog No. CRL-2321), HCC1428 (ATCC Catalog No. CRL-2327), HCC1500 (ATCC Catalog No. CRL-2329), HCC1806 (ATCC Catalog No. CRL-2335), HCC1954 (ATCC Catalog No. CRL-2338), HCC2218 (ATCC Catalog No. CRL-2343), UACC-812 (ATCC Catalog No. CRL-1897), UACC-893 (ATCC Catalog No. CRL-1902), ZR-75-1 (ATCC Catalog No. CRL-1500), ZR-75-30 (ATCC Catalog No. CRL-1504).
(§2) Cultured human breast cancer cells were placed in 96-well plates and grown in the continuous presence of test compounds for 4 or 7 days. To expose the cells to test compounds for 7 days, medium was replaced with fresh medium containing compounds after 4 days of exposure and cells were incubated for 3 additional days. Cell growth was assessed using modifications (Amin et al., Cancer Res., 47:6040-6045, 1987; incorporated herein by reference) of a methylene blue-based microculture assay (Finlay et al., Anal. Biochem., 139:272-277, 1984; incorporated herein by reference).
(§3) To investigate the possible expression of PgP by the cell lines used in this study, the antiproliferative effects of paclitaxel were determined in the presence and absence of verapamil, a known inhibitor of PgP.

[2] = tested on: BT-20 human breast cancer cell line; assay: Cell growth inhibition assay (methylene blue), BT-20; type: cell-based
Source text: as §1, §2, §3

[3] = tested on: MCF-7 human breast cancer cell line; assay: Cell growth inhibition assay (methylene blue), MCF-7; type: cell-based
Source text: as §1, §2, §3

[4] = tested on: MDA-MB-231 human breast cancer cell line; assay: Cell growth inhibition assay (methylene blue), MDA-MB-231; type: cell-based
Source text: as §1, §2, §3

[5] = tested on: MDA-MB-435 human breast cancer cell line; assay: Cell growth inhibition assay (methylene blue), MDA-MB-435; type: cell-based
Source text: as §1, §2, §3

[6] = tested on: MDA-MB-468 human breast cancer cell line; assay: Cell growth inhibition assay (methylene blue), MDA-MB-468; type: cell-based
Source text: as §1, §2, §3

[7] = tested on: HCC38 human breast cancer cell line; assay: Cell growth inhibition assay (methylene blue), HCC38; type: cell-based
Source text: as §1, §2, §3

[8] = tested on: HCC70 human breast cancer cell line; assay: Cell growth inhibition assay (methylene blue), HCC70; type: cell-based
Source text: as §1, §2, §3

[9] = tested on: HCC1143 human breast cancer cell line; assay: Cell growth inhibition assay (methylene blue), HCC1143; type: cell-based
Source text: as §1, §2, §3

[10] = tested on: HCC1419 human breast cancer cell line; assay: Cell growth inhibition assay (methylene blue), HCC1419; type: cell-based
Protocol: as §2, §3

[11] = tested on: HCC1428 human breast cancer cell line; assay: Cell growth inhibition assay (methylene blue), HCC1428; type: cell-based
Source text: as §1, §2, §3

[12] = tested on: HCC1500 human breast cancer cell line; assay: Cell growth inhibition assay (methylene blue), HCC1500; type: cell-based
Source text: as §1, §2, §3

[13] = tested on: HCC1806 human breast cancer cell line; assay: Cell growth inhibition assay (methylene blue), HCC1806; type: cell-based
Source text: as §1, §2, §3

[14] = tested on: HCC1954 human breast cancer cell line; assay: Cell growth inhibition assay (methylene blue), HCC1954; type: cell-based
Source text: as §1, §2, §3

[15] = tested on: HCC2218 human breast cancer cell line; assay: Cell growth inhibition assay (methylene blue), HCC2218; type: cell-based
Source text: as §1, §2, §3

[16] = tested on: UACC-812 human breast cancer cell line; assay: Cell growth inhibition assay (methylene blue), UACC-812; type: cell-based
Source text: as §1, §2, §3

[17] = tested on: UACC-893 human breast cancer cell line; assay: Cell growth inhibition assay (methylene blue), UACC-893; type: cell-based
Source text: as §1, §2, §3

[18] = tested on: ZR-75-1 human breast cancer cell line; assay: Cell growth inhibition assay (methylene blue), ZR-75-1; type: cell-based
Source text: as §1, §2, §3

[19] = tested on: ZR-75-30 human breast cancer cell line; assay: Cell growth inhibition assay (methylene blue), ZR-75-30; type: cell-based
Source text: as §1, §2, §3

[20] = tested on: panel of 19 human breast cancer cell lines; assay: Cell growth inhibition assay, panel of 19 human breast cancer cell lines; type: cell-based; settings: for fold-difference between IC50's in the most sensitive and the least sensitive cell line: panel of 19 human breast cancer cell lines
Source text: as §1, §2
Antiproliferative effects of four tubulin-binding anticancer agents were evaluated by a methylene blue-based cell growth inhibin assay in a panel of 19 human breast cancer cell lines. The following agents were used in this study: halichondrin analog E7389, hemiasterlin analog E7974, vinblastine, and paclitaxel. Each IC50 determination was conducted in at least three separate experiments. A presence of multidrug resistance efflux pump (P-glycoprotein or PgP) could markedly affect sensitivity of cell lines to test agents and thus mask correlations between beta-tubulin expression and cell lines' sensitivity to test agents. Cell lines were therefore tested for evidence of PgP expression by monitoring effects of the PgP blocker verapamil (used at a 10 μM concentration) on paclitaxel sensitivity. No evidence for PgP expression was found in any of the cell lines tested (Table 4). […] Inter-drug correlations were seen between sensitivities to the three microtubule polymerization inhibitors E7974, E7389, and vinblastine, but not between the microtubule polymerization stabilizer paclitaxel.

[21] = tested on: cells expressing class II β-tubulin; settings: Haber et al. J. Biol. Chem. 1995; cited from earlier work
[22] = continuous presence of compound 4 or 7 days, at least three experiments, read-out: Average IC50
[23] = +10 μM verapamil (PgP blocker), read-out: Paclitaxel IC50 (+10 μM verapamil)
[24] = no verapamil, read-out: Paclitaxel IC50 (no verapamil)
[25] = MCF7, continuous presence of compound 4 or 7 days, at least three experiments, read-out: Average IC50
[26] = HC-2218, continuous presence of compound 4 or 7 days, at least three experiments, read-out: Average IC50

Molecule CC(=O)O[C@H]1C(=O)[C@@]2(C)[C@H]([C@H](OC(=O)c3ccccc3)[C@]3(O)C[C@H](OC(=O)[C@H](O)[C@@H](NC(=O)c4ccccc4)c4ccccc4)C(C)=C1C3(C)C)[C@]1(OC(C)=O)CO[C@@H]1C[C@@H]2O [Paclitaxel, paclitaxel] has an IC50 ([1]; AU-565, +10 μM verapamil (PgP blocker), read-out: Paclitaxel IC50 (+10 μM verapamil)) of 4.8 nM, an IC50 ([1]; AU-565, no verapamil, read-out: Paclitaxel IC50 (no verapamil)) of 5.4 nM and an IC50 [1, 22] of 2.5 nM. It also gave an IC50 [2, 23] of 2.7 nM, an IC50 [2, 22] of 2.63 nM and an IC50 [2, 24] of 3.9 nM. The IC50 ([3]; MCF7, +10 μM verapamil (PgP blocker), read-out: Paclitaxel IC50 (+10 μM verapamil)) was 2.7 nM, the IC50 [3, 25] was 2.31 nM and the IC50 ([3]; MCF7, no verapamil, read-out: Paclitaxel IC50 (no verapamil)) was 3.3 nM. The IC50 [4, 23] was 5.1 nM, the IC50 [4, 22] was 5.07 nM and the IC50 [4, 24] was 4.9 nM. For the same molecule, the IC50 [5, 23] was 2.7 nM, the IC50 [5, 22] was 2.42 nM and the IC50 [5, 24] was 2.6 nM. It also gave an IC50 [6, 23] of 5.4 nM, an IC50 [6, 22] of 4.3 nM and an IC50 [6, 24] of 5.1 nM. The IC50 ([7]; HCC-38, +10 μM verapamil (PgP blocker), read-out: Paclitaxel IC50 (+10 μM verapamil)) was 6.2 nM, the IC50 ([7]; HCC-38, no verapamil, read-out: Paclitaxel IC50 (no verapamil)) was 5.9 nM and the IC50 [7, 22] was 2.94 nM. For the same molecule, the IC50 ([8]; HCC-70, +10 μM verapamil (PgP blocker), read-out: Paclitaxel IC50 (+10 μM verapamil)) was 1.9 nM, the IC50 ([8]; HCC-70, no verapamil, read-out: Paclitaxel IC50 (no verapamil)) was 2 nM and the IC50 [8, 22] was 2.25 nM. For the same molecule, the IC50 ([9]; HCC-1143, +10 μM verapamil (PgP blocker), read-out: Paclitaxel IC50 (+10 μM verapamil)) was 2.9 nM, the IC50 ([9]; HCC-1143, no verapamil, read-out: Paclitaxel IC50 (no verapamil)) was 2.8 nM and the IC50 [9, 22] was 2.11 nM. For the same molecule, the IC50 ([10]; HCC-1419, +10 μM verapamil (PgP blocker), read-out: Paclitaxel IC50 (+10 μM verapamil)) was 7 nM, the IC50 ([10]; HCC-1419, no verapamil, read-out: Paclitaxel IC50 (no verapamil)) was 5.2 nM and the IC50 [10, 22] was 5.41 nM. For the same molecule, the IC50 ([11]; HCC-1428, +10 μM verapamil (PgP blocker), read-out: Paclitaxel IC50 (+10 μM verapamil)) was 9.5 nM, the IC50 ([11]; HCC-1428, no verapamil, read-out: Paclitaxel IC50 (no verapamil)) was 9 nM and the IC50 [11, 22] was 5.03 nM. It also gave an IC50 ([12]; HCC-1500, +10 μM verapamil (PgP blocker), read-out: Paclitaxel IC50 (+10 μM verapamil)) of 3.2 nM, an IC50 ([12]; HCC-1500, no verapamil, read-out: Paclitaxel IC50 (no verapamil)) of 4.6 nM and an IC50 [12, 22] of 2.48 nM. It also gave an IC50 ([13]; HCC-1806, +10 μM verapamil (PgP blocker), read-out: Paclitaxel IC50 (+10 μM verapamil)) of 1.9 nM, an IC50 ([13]; HCC-1806, no verapamil, read-out: Paclitaxel IC50 (no verapamil)) of 1.8 nM and an IC50 [13, 22] of 2.1 nM. It also gave an IC50 ([14]; HCC-1954, +10 μM verapamil (PgP blocker), read-out: Paclitaxel IC50 (+10 μM verapamil)) of 11.7 nM, an IC50 ([14]; HCC-1954, no verapamil, read-out: Paclitaxel IC50 (no verapamil)) of 11.7 nM and an IC50 [14, 22] of 8.48 nM. For the same molecule, the IC50 [15, 26] was 6.72 nM, the IC50 ([15]; HCC-2218, +10 μM verapamil (PgP blocker), read-out: Paclitaxel IC50 (+10 μM verapamil)) was 5 nM and the IC50 ([15]; HCC-2218, no verapamil, read-out: Paclitaxel IC50 (no verapamil)) was 5.6 nM. For the same molecule, the IC50 [16, 23] was 1.9 nM, the IC50 [16, 22] was 1.46 nM and the IC50 [16, 24] was 2.7 nM. The IC50 [17, 23] was 4.1 nM, the IC50 [17, 22] was 2.73 nM and the IC50 [17, 24] was 6.3 nM. The IC50 [18, 23] was 5.9 nM, the IC50 [18, 22] was 3.35 nM and the IC50 [18, 24] was 5.3 nM. For the same molecule, the IC50 [19, 23] was 4.1 nM, the IC50 [19, 22] was 4.06 nM and the IC50 [19, 24] was 3.9 nM. For the same molecule, the “fold-difference between IC50's in the most sensitive and the least sensitive cell line” value [20] was 5.8 fold and the “effectiveness in treating cells expressing class II β-tubulin” value [21] was “not be effective”.

C=C1C[C@@H]2CC[C@@]34C[C@H]5O[C@H]6[C@@H](O3)[C@H]3O[C@H](CC[C@@H]3O[C@H]6[C@H]5O4)CC(=O)C[C@@H]3[C@@H](OC)[C@@H](C[C@H](O)CN)O[C@H]3C[C@H]3O[C@@H](CC[C@@H]1O2)C[C@@H](C)C3=C [E7389] gave an IC50 [1, 22] of 0.65 nM, an IC50 [2, 22] of 0.82 nM and an IC50 [3, 25] of 1.45 nM. For the same molecule, the IC50 [4, 22] was 1.75 nM, the IC50 [5, 22] was 0.29 nM and the IC50 [6, 22] was 0.45 nM. For the same molecule, the IC50 [7, 22] was 0.4 nM, the IC50 [8, 22] was 0.63 nM and the IC50 [9, 22] was 0.43 nM. For the same molecule, the IC50 [10, 22] was 1.59 nM, the IC50 [11, 22] was 0.53 nM and the IC50 [12, 22] was 0.56 nM. For the same molecule, the IC50 [13, 22] was 0.74 nM, the IC50 [14, 22] was 0.37 nM and the IC50 [15, 26] was 1.14 nM. For the same molecule, the IC50 [16, 22] was 1.17 nM, the IC50 [17, 22] was 0.31 nM and the IC50 [18, 22] was 1.19 nM. The IC50 [19, 22] was 1.8 nM, the “fold-difference between IC50's in the most sensitive and the least sensitive cell line” value [20] was 6.2 fold and the IC50 ([20]; range over 19 human breast cancer cell lines) was 0.29 to 1.8 nM.
